Reference: patent US8697649B2, “Polypeptides, nucleic acid molecule encoding polypeptides, and uses of polypeptides” (China Medical University, priority 2012, dated 2014)
Entries after “also recorded” stand apart in the source; their conditions may differ. Like-named read-outs stand apart in the source and are kept apart here. Where no end group is shown, it is not given here.

What was measured:
insulin receptor [1] = biological target: T1, insulin receptor (Homo sapiens, UniProt P06213); test: Whole cell receptor binding assay with 125I-labeled insulin (IM-9 cells)
T1 construct: endogenous in cells; host or cells: IM-9 human lymphocyte cell line
Description: After incubation, the cells were chilled, centrifuged at 2000 rpm for 10 min at 4° C., and the pellets were washed twice with an ice-cold wash buffer (10 mmol/L Tris and 150 mmol/L NaCl, pH 7.6). The pellet was counted by a gamma counter. The assays were performed at least three times for each polypeptide. […] The lower value of EC50 represents a stronger effect on promoting the binding.

[2] = test system: diabetic mice (STZ-induced); test: Glycated hemoglobin value assay; format: in vivo; settings: 1×10^−6 mole/kg oral, after 28 days
Description: Glycated hemoglobin value (HbAlc) is the concentration of glucose attached on red blood cells in the blood of an organism. In general, a higher concentration of blood sugar reflects a higher glycated hemoglobin value, while the glycated hemoglobin value is a standard for evaluating the effect of a medicament on treating diabetes. Therefore, in this example, the effect of the polypeptide on controlling the blood sugar values of the mice were evaluated by measuring the glycated hemoglobin value.
In the experimental group, the polypeptides (1×10^−6 mole/kg body weight, 20 μl) were orally administrated to each mouse in the experimental group. In the control group, each mouse was administrated by 20 μl water. The glycated hemoglobin value was measured after 28 days.

diabetic mice [3] = test: Measurement of renal index; format: in vivo; settings: oral, after 28 days, blood
Description: After 28 days, the kidney indexes (BUN and CRE) in the blood of these mice were measured to evaluate the effects of these polypeptides on the renal disorders caused by diabetes.

3T3-L1 adipocytes [4] = test: Microarray analysis; format: cell-based; settings: expression increased or decreased up to 2 folds
Description: Total RNAs were extracted from 3T3-L1 adipocytes which were or were not treated with IRBP-1-68 (SEQ ID NO:1) using RNeasy Mini kit (Qiagen, Valencia, Calif., USA). Total RNA was evaluated using Agilent 2100 bioanalyzer (Agilent Technologies, Santa Clara, Calif., USA). The RNA sample with an RNA integrity number greater than 8.0 was selected. Microarray analysis was performed as described previously (see Cheng, W. Y. et al., 2009, Comprehensive evaluation of a novel nuclear factor-κB inhibitor, quinoclamine, by transcriptomic analysis. Brit. J. Pharmacol. 157(5): 746-756; Cheng, H. M. et al., 2010, Application of bioactivity database of Chinese herbal medicine on the therapeutic prediction, drug development, and safety evaluation. J. Ethnopharmacol. 132 (2): 429-437; and Hsiang, C. Y. et al., 2009, Nuclear factor-κB bioluminescence imaging-guided transcriptomic analysis for the assessment of hoist-biomaterial interaction in vivo. Biomaterials 30 (17): 3042-3049, which are entirely incorporated hereinto by reference).

[5] = test system: mice (BALB/c, STZ-induced, ob/ob); test: Blood sugar reducing assay; format: in vivo; settings: 2.5×10^−9 mole/kg intraperitoneal, 150 minutes
Description: IRBP-1-68 (SEQ ID NO:1), the polypeptides having the segmental amino acid sequences of IRBP, and the polypeptides derived from the substitution of multiple amino acids in the segmental amino acid sequences were analyzed by a blood sugar reducing assay. […] The polypeptides (100 μl, 2.5×10^−9 mole/kg body weight) as shown in Table 11 were administrated to each mouse in an experimental group by intraperitoneal injection. Each mouse in the control group was administrated with 100 μl water. […] After 150 minutes, blood samples were collected from the mouse tails, while the blood sugar value was measured by a glucometer (ACCU-CHEK Advantage, Roche, Germany). The blood sugar values of the mice in the experimental group and control group were compared and analyzed.

3T3-L1 adipocytes [6] = test: Immunochemical analysis of GLUT4; format: cell-based; settings: FIG. 4
Description: Immunochemical analysis was conducted by the following method: 3T3-L1 adipocytes were cultured and fixed on a cover slide, and incubated with a 1:50 diluted mouse monoclonal antibody against GLUT4 (Millipore, Billerica, Mass., USA) at 4° C. overnight. Then, the cells were incubated with biotinylated secondary antibody (Zymed Laboratories, South San Francisco, Calif., USA) at room temperature for 20 min. Then, the slides were incubated with avidin-biotin complex reagent and stained with 3,3′-diaminobenzidine (HISTOSTAIN®-Plus Kit, Zymed Laboratories, South San Francisco, Calif., USA).

3T3-L1 adipocytes [7] = test: Western blotting analysis of insulin signal pathway-related proteins; format: cell-based; settings: 3T3-L1 adipocytes treated 16 hours, FIG. 3
Description: 3T3-L1 adipocytes were cultured at 37° C. for 24 hours, treated with IRBP-1-68 (SEQ ID NO:1) for 16 hours, collected using a cell scraper after being washed with ice-cold PBS, and lysed with a 300 μl sample buffer (62.5 mM Tris-HCl, pH 6.8, 2% sodium dodecyl sulfate, 10% glycerol, 50 mM dithiothreitol, 0.1% bromophenol blue). The protein concentration of the cell lysate was determined with a Bradford method (Bio-Rad, Hercules, Calif., USA). The proteins (10 μg) were separated by SDS-PAGE and the protein bands were then transferred electrophoretically to nitrocellulose membranes (Amersham Pharmacia Biotech Inc., Piscataway, N.J., USA). Membranes were blocked in blocking buffer (20 mM Tris-HCl, pH 7.6, 140 mM NaCl, 0.1% Tween-20, 5% skim milk powder) and probed with anti-Akt, anti-phospho-Akt (Ser473), anti-phospho-Akt (Thr308), anti-phospho-PTEN (phosphatase and tensin homolog deleted on Chromosome ten) (Ser380), anti-phospho-GSK-3β (glycogensynthasekinase-3β) (Ser9), anti-phospho-Raf (Ser259), anti-phospho-PDK1 (phosphoinositide-dependent kinase 1) (Ser241) antibodies (Cell Signaling Technology, Beverly, Mass., USA). The result was shown in FIG. 3, wherein the values shown in FIG. 3 represent the intensity of the bands in western blotting analysis. A higher value represents a higher expression level of the target protein.

insulin receptor [8] = biological target: T1, insulin receptor; test: Insulin receptor autophosphorylation assay in IM-9 cells; format: cell-based; settings: stimulated 15 min at 37° C., immunoblotting, FIG. 2
Description: The assay was conducted by the following steps: The human lymphocyte cell line (IM-9) was serum-starved (RPMI medium supplemented with 0.1% BSA) for 16 h and then stimulated with IRBP-1-68 (SEQ ID NO:1) for 15 min at 37° C., and washed with cold PBS. The cells were lysed to obtain about […] of total proteins, while the immunoprecipitation was conducted by the anti-insulin receptor polyclonal antibody (C-19). Then, the protein was adsorbed onto protein G-agarose beads (Gibco-BRL, Gaithersburg, Md.) for 2 h at 4° C., resolved by SDS-PAGE, and transferred to an Immobilon-P membrane by electroblotting. The membrane was incubated with antiphosphotyrosine antibody (4G10) overnight at 4° C. to conduct the immunoblotting analysis. In FIG. 2, the broader band of the immunoblotting analysis represents a higher protein expression level.

3T3-L1 adipocytes [9] = test: Glucose uptake assay; format: cell-based; settings: 1 nM insulin plus IRBP-1-68, 30 min, [3H]-2-deoxy-D-glucose 10 min
Excerpt: A key step for modulating blood sugar is that adipose tissue can uptake glucose from the blood and thereby, reduce blood sugar. Accordingly, this example further used 3T3-L1 adipocytes as an assay platform to conduct the glucose uptake assay. […] The cells were washed three times with ice-cold phosphate buffered saline (PBS) and then solubilized in 0.1% SDS.

diabetic mice [10] = test: Measurement of liver index; format: in vivo; settings: oral, after 28 days
Description: The polypeptide of IRBP-50-68 (SEQ ID NO:6) was orally administrated to the diabetic mice in the experimental group by the same method as described in Example 14. After 28 days, the liver indexes (GOT and GPT) of these mice were measured to evaluate the effect of the polypeptide on the hepato disorders caused by diabetes in diabetic mice.

[11] = biological target: insulin receptor tyrosine kinase (Homo sapiens, UniProt P06213); test: Receptor binding assay by insulin receptor tyrosine kinase activity; format: biochemical; settings: poly(Glu,Tyr) substrate, [γ-32P]ATP
Description: The sample was placed in an ice bath for 10 minutes. Then, TCA was added thereinto to precipitate the substrate (poly(Glu,Tyr)) on a filter paper.

[12] = STZ-induced mice, glucose 1 g/kg

DFRCDRVRVWVTERGIVARPPTIG [IRBP-45-68]
EC50 (insulin receptor [1]; IM-9 cells, 16° C., 90 min): > 25 nM

IVARPPTIG [IRBP-60-68]
glycated hemoglobin value [2]: 5.73 ± 0.11 %
EC50 (insulin receptor [1]): 0.77 ± 0.04 nM
BUN (diabetic mice [3]): 73.17 ± 29.95
CRE (diabetic mice [3]): 0.17 ± 0.04

IVYQVPTIG [IRBP-MT]
EC50 (insulin receptor [1]; IM-9 cells, 16° C., 90 min): 0.77 ± 0.02 nM

SRCQGKSSWPQLVGSTGAAAKAVIERENPRVRAVIIKVGSGATKDFRCDRVRVWVTERGIVARPPTIG [IRBP-1-68]
number of the genes with changed expression level (total gene number of the pathway) (3T3-L1 adipocytes [4]; adipocytokine signal pathway): 16 (71)
number of the genes with changed expression level (total gene number of the pathway) (3T3-L1 adipocytes [4]; insulin signal pathway): 28 (136)
blood sugar inhibition ratio ([5]; BALB/c mice, glucose 4 g/kg): 68.9 ± 0.9 %
blood sugar inhibition ratio [5, 12]: 37.3 ± 3.8%
blood sugar inhibition ratio ([5]; ob/ob mice, glucose 1 g/kg): 55.6 ± 12.9 %
GLUT4 expression by immunochemical staining (3T3-L1 adipocytes [6]): can promote 3T3-L1 adipocytes to express GLUT4
protein expression levels of insulin signal pathway-related genes (PDK-1, phosphorylated-AKt Thr 308, phosphorylated-AKt Ser 473, GLUT4) (3T3-L1 adipocytes [7]): can increase the protein expression levels
insulin receptor autophosphorylation (ratio of phosphorylated insulin receptor to insulin receptor) (insulin receptor [8]): increased along with the increment of IRBP-1-68 (SEQ ID NO:1) concentration; also recorded: can induce insulin receptor autophosphorylation
Ratio (radioactivity, glucose uptake) (3T3-L1 adipocytes [9]): 1.79 ± 0.49

RVRVWVTERGIVARPPTIG [IRBP-50-68]
glycated hemoglobin value [2]: 5.93 ± 0.55 %
GOT (diabetic mice [10]): 247.89 ± 97.38
GPT (diabetic mice [10]): 135.72 ± 30.72
BUN (diabetic mice [3]): 107.25 ± 42.99
CRE (diabetic mice [3]): 0.191 ± 0.12

RYKYQWFYI (optimal docking polypeptide of insulin receptor) [IRBP-9A]
blood sugar inhibition ratio [5, 12]: 34.2 ± 13.6%
activity of insulin receptor tyrosine kinase [11]: 40.34 ± 1.94 U/ml

RYKYQWWYI (optimal docking polypeptide of insulin receptor) [IRBP-9C]
blood sugar inhibition ratio [5, 12]: 22.6 ± 9.0%
activity of insulin receptor tyrosine kinase [11]: 44.18 ± 3.61 U/ml

IVARPPAIG [IRBP-MC]
EC50 (insulin receptor [1]; IM-9 cells, 16° C., 90 min): 0.86 ± 0.05 nM

RYKYQCWYI (optimal docking polypeptide of insulin receptor) [IRBP-9D]
activity of insulin receptor tyrosine kinase [11]: 65.95 ± 1.74 U/ml

RYKYQCFYI (optimal docking polypeptide of insulin receptor) [IRBP-9B]
blood sugar inhibition ratio ([5]; BALB/c mice, glucose 4 g/kg): 61.0 ± 2.5 %
activity of insulin receptor tyrosine kinase [11]: 79.76±5.64 U/ml

VIIKVGSGATKDFRCDRVR [IRBP-34-52]
EC50 (insulin receptor [1]; IM-9 cells, 16° C., 90 min): > 25 nM

GAAAKAVIERENPRVRVI [IRBP-17-35]
EC50 (insulin receptor [1]): > 25 nM
